Read-outs that look alike come from different tables or passages of the source.
Key:
Assay in all cases: biochemical
Assay type in all cases: binding
468 kinases [1] = molecular target: 468 kinases (Homo sapiens, UniProt P49759); details: CLK1; read-out: % Inhibition @ 100 nM
468 kinases [2] = molecular target: 468 kinases (Homo sapiens, UniProt Q9NY57); details: YANK2; read-out: % Inhibition @ 100 nM
468 kinases [3] = molecular target: 468 kinases (Homo sapiens, UniProt P11362); details: FGFR1; read-out: % Inhibition @ 100 nM
468 kinases [4] = molecular target: 468 kinases (Homo sapiens, UniProt Q9P286); details: PAK7; read-out: % Inhibition @ 100 nM
468 kinases [5] = molecular target: 468 kinases (Homo sapiens, UniProt Q9Y3S1); details: WNK2; read-out: % Inhibition @ 100 nM
468 kinases [6] = molecular target: 468 kinases (Homo sapiens, UniProt Q9NQU5); details: PAK6; read-out: % Inhibition @ 100 nM
468 kinases [7] = molecular target: 468 kinases (Homo sapiens, UniProt O00141); details: SGK; read-out: % Inhibition @ 100 nM
468 kinases [8] = molecular target: 468 kinases (Homo sapiens, UniProt P07947); details: YES; read-out: % Inhibition @ 100 nM
468 kinases [9] = molecular target: 468 kinases (Homo sapiens, UniProt P49674); details: CSNK1E; read-out: % Inhibition @ 100 nM
468 kinases [10] = molecular target: 468 kinases (Homo sapiens, UniProt Q9HAZ1); details: CLK4; read-out: % Inhibition @ 100 nM
468 kinases [11] = molecular target: 468 kinases (Homo sapiens, UniProt P10721, L576P); details: KIT(L576P); read-out: % Inhibition @ 100 nM
468 kinases [12] = molecular target: 468 kinases (Homo sapiens, UniProt Q13705); details: ACVR2B; read-out: % Inhibition @ 100 nM
468 kinases [13] = molecular target: 468 kinases (Homo sapiens, UniProt P54764); details: EPHA4; read-out: % Inhibition @ 100 nM
468 kinases [14] = molecular target: 468 kinases (Homo sapiens, UniProt P04049); details: RAF1; read-out: % Inhibition @ 100 nM
468 kinases [15] = molecular target: 468 kinases (Homo sapiens, UniProt P48736); details: PIK3CG; read-out: % Inhibition @ 100 nM
468 kinases [16] = molecular target: 468 kinases (Homo sapiens, UniProt P29376); details: LTK; read-out: % Inhibition @ 100 nM
468 kinases [17] = molecular target: 468 kinases (Homo sapiens, UniProt Q96PY6); details: NEK1; read-out: % Inhibition @ 100 nM
468 kinases [18] = molecular target: 468 kinases (Homo sapiens, UniProt P29320); details: EPHA3; read-out: % Inhibition @ 100 nM
468 kinases [19] = molecular target: 468 kinases (Homo sapiens, UniProt Q9UM73); details: ALK; read-out: % Inhibition @ 100 nM
468 kinases [20] = molecular target: 468 kinases (Homo sapiens, UniProt Q9NRH2); details: SNRK; read-out: % Inhibition @ 100 nM
468 kinases [21] = molecular target: 468 kinases (Homo sapiens, UniProt Q15418); details: read-out: % Inhibition @ 100 nM
468 kinases [22] = molecular target: 468 kinases (Homo sapiens, UniProt Q6ZN16); details: MAP3K15; read-out: % Inhibition @ 100 nM
468 kinases [23] = molecular target: 468 kinases (Homo sapiens, UniProt P24723); details: PRKCH; read-out: % Inhibition @ 100 nM
468 kinases [24] = molecular target: 468 kinases (Homo sapiens, UniProt P09619); details: PDGFRB; read-out: % Inhibition @ 100 nM
468 kinases [25] = molecular target: 468 kinases (Homo sapiens, UniProt Q15569); details: TESK1; read-out: % Inhibition @ 100 nM
468 kinases [26] = molecular target: 468 kinases (Homo sapiens, UniProt O00444); details: PLK4; read-out: % Inhibition @ 100 nM
468 kinases [27] = molecular target: 468 kinases (Homo sapiens, UniProt P31152); details: ERK4; read-out: % Inhibition @ 100 nM
468 kinases [28] = molecular target: 468 kinases (Homo sapiens, UniProt Q9P0L2); details: MARK1; read-out: % Inhibition @ 100 nM
468 kinases [29] = molecular target: 468 kinases (Homo sapiens, UniProt O43318); details: TAK1; read-out: % Inhibition @ 100 nM
468 kinases [30] = molecular target: 468 kinases (Homo sapiens, UniProt Q16832); details: DDR2; read-out: % Inhibition @ 100 nM
468 kinases [31] = molecular target: 468 kinases (Homo sapiens, UniProt O75385); details: ULK1; read-out: % Inhibition @ 100 nM
468 kinases [32] = molecular target: 468 kinases (Homo sapiens, UniProt O00750); details: PIK3C2B; read-out: % Inhibition @ 100 nM
468 kinases [33] = molecular target: 468 kinases (Homo sapiens, UniProt Q86UE8); details: TLK2; read-out: % Inhibition @ 100 nM

| SMILES | inhibition at 0.1 µM (468 kinases [1]) [%] | inhibition at 0.1 µM (468 kinases [2]) [%] | inhibition at 0.1 µM (468 kinases [3]) [%] | inhibition at 0.1 µM (468 kinases [4]) [%] | inhibition at 0.1 µM (468 kinases [5]) [%] | inhibition at 0.1 µM (468 kinases [6]) [%] | inhibition at 0.1 µM (468 kinases [7]) [%] | inhibition at 0.1 µM (468 kinases [8]) [%] | inhibition at 0.1 µM (468 kinases [9]) [%] | inhibition at 0.1 µM (468 kinases [10]) [%] | inhibition at 0.1 µM (468 kinases [11]) [%] | inhibition at 0.1 µM (468 kinases [12]) [%] | inhibition at 0.1 µM (468 kinases [13]) [%] | inhibition at 0.1 µM (468 kinases [14]) [%] | inhibition at 0.1 µM (468 kinases [15]) [%] | inhibition at 0.1 µM (468 kinases [16]) [%] | inhibition at 0.1 µM (468 kinases [17]) [%] | inhibition at 0.1 µM (468 kinases [18]) [%] | inhibition at 0.1 µM (468 kinases [19]) [%] | inhibition at 0.1 µM (468 kinases [20]) [%] | other results |
| --- | --- | --- | --- | --- | --- | --- | --- | --- | --- | --- | --- | --- | --- | --- | --- | --- | --- | --- | --- | --- | --- |
| CCN(CC)CCNC(=O)c1c(C)[nH]c(/C=C2\C(=O)Nc3ccc(CCO)cc32)c1C [Compound No. 10, (Z)—N-(2-(Diethylamino)ethyl)-5-((5-(2-hydroxyethyl)-2-oxoindolin-3-ylidene)methyl)-2,4-dimethyl-1H-pyrrole-3-carboxamide] | 90.2 | 1 | 44 | 0 | 0 | 0 | 2 | 13 | 37 | 95.5 | 88 | 1 | 0 | 9 | 0 | 8 | 9 | 0 | 29 | 12 | inhibition at 0.1 µM (468 kinases [21]; RSK1(Kin.Dom.1-N-terminal)): 4%; inhibition at 0.1 µM (468 kinases [21]; RSK1(Kin.Dom.2-C-terminal)): 0%; inhibition at 0.1 µM (468 kinases [22]): 0%; inhibition at 0.1 µM (468 kinases [23]): 1%; inhibition at 0.1 µM (468 kinases [24]): 99.3%; inhibition at 0.1 µM (468 kinases [25]): 10%; inhibition at 0.1 µM (468 kinases [26]): 0%; inhibition at 0.1 µM (468 kinases [27]): 0%; inhibition at 0.1 µM (468 kinases [28]): 39%; inhibition at 0.1 µM (468 kinases [29]): 59%; inhibition at 0.1 µM (468 kinases [30]): 12%; inhibition at 0.1 µM (468 kinases [31]): 58%; inhibition at 0.1 µM (468 kinases [32]): 0%; inhibition at 0.1 µM (468 kinases [33]): 0% |
| CCN(CC)CCNC(=O)c1c(C)[nH]c(/C=C2\C(=O)Nc3ccc(CCC(N)=O)cc32)c1C [Compound No. 16, (Z)-5-((5-(3-Amino-3-oxopropyl)-2-oxoindolin-3-ylidene)methyl)-N-(2-(diethylamino)ethyl)-2,4-dimethyl-1H-pyrrole-3-carboxamide] | 90.7 | 0 | 14 | 11 | 13 | 0 | 47 | 24 | 4 | 96.2 | 12 | 12 | 0 | 0 | 22 | 0 | 77 | 14 | 54 | 10 | inhibition at 0.1 µM (468 kinases [21]; RSK1(Kin.Dom.1-N-terminal)): 20%; inhibition at 0.1 µM (468 kinases [21]; RSK1(Kin.Dom.2-C-terminal)): 30%; inhibition at 0.1 µM (468 kinases [22]): 71%; inhibition at 0.1 µM (468 kinases [23]): 0%; inhibition at 0.1 µM (468 kinases [24]): 61%; inhibition at 0.1 µM (468 kinases [25]): 5%; inhibition at 0.1 µM (468 kinases [26]): 57%; inhibition at 0.1 µM (468 kinases [27]): 4%; inhibition at 0.1 µM (468 kinases [28]): 13%; inhibition at 0.1 µM (468 kinases [29]): 61%; inhibition at 0.1 µM (468 kinases [30]): 27%; inhibition at 0.1 µM (468 kinases [31]): 56%; inhibition at 0.1 µM (468 kinases [32]): 24%; inhibition at 0.1 µM (468 kinases [33]): 23% |

From patent publication US12435059B2, “AMP-activated protein kinase inhibitors and methods of making and using the same” (The Regents of the University of Colorado, priority 2019, dated 2025)
